Target: p300 HAT domain (residues 1287-1666) (Homo sapiens (Human), UniProt Q09472)
Test: p300 HAT SPA assay (scintillation proximity assay, acetylation of biotinylated H3(1-21) peptide)
Assay type: biochemical
Details: average of at least 2 replicate titrations
Procedure: In a typical experiment the p300 HAT inhibitory activity of the compounds described herein was determined in accordance with the following experimental method.
The expressed protein was purified by Ni2+ affinity, followed by anion exchange chromatography. Appropriate fractions were pooled and buffer exchanged into 20 mM Hepes pH 7.5, 150 mM NaCl, and 1 mM TCEP.
35 μL of the reaction volume was transferred to a 384-well streptavidin FlashPlate (PerkinElmer) using a Bravo liquid handler (Velocity 11) and incubated for 1.5 hr at RT. […] Data were analyzed in Genedata to determine inhibitor IC50 values.

Sequence of p300 HAT domain (residues 1287-1666) (Q09472 1287-1666): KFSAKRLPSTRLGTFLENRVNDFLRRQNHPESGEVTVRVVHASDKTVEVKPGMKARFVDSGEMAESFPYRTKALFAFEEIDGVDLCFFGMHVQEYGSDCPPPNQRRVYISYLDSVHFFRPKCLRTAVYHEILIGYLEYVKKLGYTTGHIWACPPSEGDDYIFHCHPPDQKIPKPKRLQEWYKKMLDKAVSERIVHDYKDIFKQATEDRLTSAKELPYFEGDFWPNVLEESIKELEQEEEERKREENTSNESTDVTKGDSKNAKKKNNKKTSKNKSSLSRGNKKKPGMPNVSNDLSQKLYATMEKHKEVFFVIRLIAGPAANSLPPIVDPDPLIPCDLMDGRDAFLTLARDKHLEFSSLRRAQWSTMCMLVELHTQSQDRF

CN1CCN(c2ccc(NC(=O)[C@@H](NCCc3ccc(Cl)cc3)c3ccccc3)cc2)CC1 (single isomer, unassigned) [17 Isomer 2]
IC50: > 5000 nM

Cn1cc(-c2ccc(NC(=O)C(NCCc3ccc(C#N)cc3)C3CCCCC3)nc2)cn1 (single isomer, unassigned) [89 Isomer 2]
IC50: 1430 nM

CC(CNC(C(=O)Nc1ccc(-c2cn[nH]c2)cn1)c1ccccc1)c1ccc(C#N)cc1 (single isomer, unassigned) [104 Isomer 3]
IC50: 415 nM

CC(CNC(C(=O)Nc1ccc(-c2cnn(C(C)(C)C#N)c2)cn1)c1ccccc1)c1ccc(C#N)cc1 (single isomer, unassigned) [47 Isomer 4]
IC50: 425 nM

COc1cc(-c2cnn(C)c2)ccc1NC(=O)C(NCCc1ccc(C#N)cc1)c1ccccc1 (single isomer, unassigned) [24 Isomer 2]
IC50: 607 nM

Cn1cc(-c2ncc(NC(=O)C(NCCc3ccc(C#N)cc3)c3ccccc3)cn2)cn1 (single isomer, unassigned) [23 Isomer 2]
IC50: > 5000 nM

CO[C@H]1CCN(c2ccc(NC(=O)C(NCC(C)c3ccc(C#N)cc3)c3ccccc3)nc2)C1 (single isomer, unassigned) [93 Isomer 4]
IC50: > 2000 nM

Cc1nn(C)c(C)c1-c1ccc(NC(=O)C(NC[C@@H](C)c2ccc(C#N)cc2)c2ccccc2)nc1 (single isomer, unassigned) [130 Isomer 1]
IC50: < 2000 nM

CO[C@H]1CCN(c2ccc(NC(=O)C(NCC(C)c3ccc(C#N)cc3)c3ccccc3)nc2)C1 (single isomer, unassigned) [93 Isomer 2]
IC50: > 2000 nM

COc1ccccc1C(NCCc1ccc(C#N)cc1)C(=O)Nc1ccc(-c2cnn(C)c2)cn1 (single isomer, unassigned) [87 Isomer 1]
IC50: 264 nM

Cn1cc(-c2cnc(NC(=O)C(NCCc3ccc(C#N)cc3)c3ccccc3)c(Cl)c2)cn1 (single isomer, unassigned) [43 Isomer 1]
IC50: 185 nM

CC(CNC(C(=O)Nc1ccc(-c2cnn(C)c2)cn1)c1ccccc1)c1ccc(C#N)c(F)c1 (single isomer, unassigned) [91 Isomer 1]
IC50: 473 nM

CC1CN(C)C(=O)CN1c1ccc(NC(=O)C(NC[C@@H](C)c2ccc(C#N)cc2)c2ccccc2)nc1 (single isomer, unassigned) [125 Isomer 2]
IC50: > 2000 nM

CC(CNC(C(=O)Nc1ccc(-c2cnn(C(C)(C)CO)c2)cn1)c1ccccc1)c1ccc(C#N)cc1 (single isomer, unassigned) [8 Isomer 1]
IC50: 309 nM

CC(CNC(C(=O)Nc1ccc(N2CCN(CC(F)(F)F)C(=O)C2)cn1)c1ccccc1)c1ccc(C#N)cc1 (single isomer, unassigned) [103 Isomer 4]
IC50: > 2000 nM

CC(CNC(C(=O)Nc1ccc(N2CCN(C)S2(=O)=O)cn1)c1ccccc1)c1ccc(C#N)cc1 (single isomer, unassigned) [108 Isomer 3]
IC50: > 2000 nM

COC1CN(c2ccc(NC(=O)C(NCC(C)c3ccc(C#N)cc3)c3ccccc3)nc2)C1 (single isomer, unassigned) [32 Isomer 3]
IC50: > 2000 nM

Cc1c(-c2ccc(NC(=O)C(NC[C@@H](C)c3ccc(C#N)cc3)c3ccccc3)nc2)cnn1C (single isomer, unassigned) [114 Isomer 1]
IC50: 528 nM

Cn1cc(-c2ccc(NC(=O)C(NCCc3ccc(C#N)cc3)c3ccccc3Cl)nc2)cn1 (single isomer, unassigned) [88 Isomer 2]
IC50: > 2000 nM

CCN1CCN(c2ccc(NC(=O)C(NC[C@@H](C)c3ccc(C#N)cc3)c3ccccc3)nc2)CC1=O (single isomer, unassigned) [102 Isomer 2]
IC50: 1550 nM

N#Cc1ccc(CCNC(C(=O)Nc2ccc(N3CCN(CC(F)(F)F)CC3)cn2)c2ccccc2)cc1 (single isomer, unassigned) [40 Isomer 2]
IC50: > 5000 nM

COc1cccc(C(NCCc2ccc(C#N)cc2)C(=O)Nc2ccc(-c3cnn(C)c3)cn2)c1 (single isomer, unassigned) [70 Isomer 1]
IC50: > 2000 nM

CC(CNC(C(=O)Nc1ccc(-c2cnn(C)n2)cn1)c1ccccc1)c1ccc(C(F)(F)F)cc1 (single isomer, unassigned) [99 Isomer 1]
IC50: 869 nM
